Laboratory results reported in ChEMBL document CHEMBL4052693, “1,2,4-Triazole and 1,3,4-oxadiazole analogues: Synthesis, MO studies, in silico molecular docking studies, antimalarial as DHFR inhibitor and antimicrobial activities” (Bioorg Med Chem, 2017).
Values after ≈ are worked out from the molar mass of the structure shown. Active and inactive are the calls of the source. The calls are words filed in the database; no cut-off is given here.

Assays:
Escherichia coli = experiment: Antimicrobial activity against Escherichia coli MTCC 443 incubated for overnight by broth micro dilution method; assay type: functional
[1] = Cytotoxicity against Schizosaccharomyces pombe Var. Paul Linder 3360 assessed as cell viability at 6 ug/ml after 16 to 18 hrs by trypan blue staining-based compound microscopic analysis (reference value: 93.67 +/- 1.53%); conditions: Schizosaccharomyces pombe Var. Paul Linder 3360 cells, read-out: Activity
Streptococcus pyogenes = experiment: Antimicrobial activity against Streptococcus pyogenes MTCC 442 incubated for overnight by broth micro dilution method; assay type: functional
[2] = Cytotoxicity against Schizosaccharomyces pombe Var. Paul Linder 3360 assessed as cell viability at 10 ug/ml after 16 to 18 hrs by trypan blue staining-based compound microscopic analysis (reference value: 93.67 +/- 1.53%); conditions: Schizosaccharomyces pombe Var. Paul Linder 3360 cells, read-out: Activity
[3] = Cytotoxicity against Schizosaccharomyces pombe Var. Paul Linder 3360 assessed as cell viability at 2 ug/ml after 16 to 18 hrs by trypan blue staining-based compound microscopic analysis (reference value: 93.67 +/- 1.53%); conditions: Schizosaccharomyces pombe Var. Paul Linder 3360 cells, read-out: Activity
Plasmodium falciparum = experiment: Antimalarial activity against Plasmodium falciparum ring stage forms after 48 hrs; assay type: functional
Candida albicans = experiment: Antifungal activity against Candida albicans MTCC 227 incubated for overnight by broth micro dilution method; assay type: functional
[4] = Cytotoxicity against Schizosaccharomyces pombe Var. Paul Linder 3360 assessed as cell viability at 8 ug/ml after 16 to 18 hrs by trypan blue staining-based compound microscopic analysis (reference value: 93.67 +/- 1.53%); conditions: Schizosaccharomyces pombe Var. Paul Linder 3360 cells, read-out: Activity
Aspergillus clavatus [5] = conditions: MTCC 1323
[6] = Cytotoxicity against Schizosaccharomyces pombe Var. Paul Linder 3360 assessed as cell viability at 4 ug/ml after 16 to 18 hrs by trypan blue staining-based compound microscopic analysis (reference value: 93.67 +/- 1.53%); conditions: Schizosaccharomyces pombe Var. Paul Linder 3360 cells, read-out: Activity
Pseudomonas aeruginosa = experiment: Antimicrobial activity against Pseudomonas aeruginosa MTCC 1688 incubated for overnight by broth micro dilution method; assay type: functional
[7] = tested on: Schizosaccharomyces pombe; experiment: Genotoxicity in Schizosaccharomyces pombe Var. Paul Linder 3360 assessed as DNA damage at 2 to 10 ug/ml after 17 to 18 hrs by agarose gel electrophoresis analysis
Staphylococcus aureus = experiment: Antimicrobial activity against Staphylococcus aureus MTCC 96 incubated for overnight by broth micro dilution method; assay type: functional
Dihydrofolate reductase = molecular target: T1, Dihydrofolate reductase (Bos taurus, UniProt P00376); experiment: Inhibition of bovine liver DHFR pre-incubated 2 mins before dihydrofolic acid substrate addition and measured over 10 mins in presence of NADPH
T1 sequence (P00376 whole entry): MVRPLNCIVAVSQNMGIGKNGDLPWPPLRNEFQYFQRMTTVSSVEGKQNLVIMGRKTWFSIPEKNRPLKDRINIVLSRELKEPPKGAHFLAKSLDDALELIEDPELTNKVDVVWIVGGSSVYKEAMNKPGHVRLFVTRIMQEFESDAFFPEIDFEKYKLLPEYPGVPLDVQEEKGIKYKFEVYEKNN

Aspergillus clavatus [8] = experiment: Antifungal activity against Aspergillus clavatus MTCC 1323 incubated for overnight by broth micro dilution method; assay type: functional

| Molecule | MIC99 (Escherichia coli) [µM] | viability at 6 ug/ml [1] [%] | MIC99 (Streptococcus pyogenes) [µM] | viability at 10 ug/ml [2] [%] | viability at 2 ug/ml [3] [%] | IC50 (Plasmodium falciparum) [nM] | MIC99 (Candida albicans) | viability at 8 ug/ml [4] [%] | MIC99 (Aspergillus clavatus [5]) | viability at 4 ug/ml [6] [%] | MIC99 (Pseudomonas aeruginosa) [µM] | Activity [7] | MIC99 (Staphylococcus aureus) [µM] | IC50 (Dihydrofolate reductase) [nM] | MIC99 (Aspergillus clavatus [8]) [µM] |
| --- | --- | --- | --- | --- | --- | --- | --- | --- | --- | --- | --- | --- | --- | --- | --- |
| Sc1nnc(-c2ccc(/N=C/c3cccs3)cc2)n1/N=C/c1cccs1 | 316 (≈ 125 µg/mL) | 75.3 | 506 (≈ 200 µg/mL) | 63.3 | 87.7 | 815 | 2530 µM (≈ 1000 µg/mL) | 70.7 | inactive | 82 | 633 (≈ 250 µg/mL) | Toxic | 633 (≈ 250 µg/mL) | – | – |
| NYSTATIN | – | – | – | – | – | – | 108 µM | – | 108 µM | – | – | – | – | – | – |
| Sc1nnc(-c2ccc(/N=C/c3ccc(Cl)cc3)cc2)o1 | 635 (≈ 201 µg/mL) | 64.7 | 397 (≈ 125 µg/mL) | 47 | 81.3 | 301 | inactive | 54.7 | inactive | 73.3 | 397 (≈ 125 µg/mL) | Toxic | 794 (≈ 251 µg/mL) | 45 | – |
| Nc1ccc(-c2nnc(S)o2)cc1 | 518 (≈ 100 µg/mL) | 76 | 518 (≈ 100 µg/mL) | 68.3 | 87.3 | 810 | 2590 µM (≈ 500 µg/mL) | 71 | – | 83 | 1300 (≈ 250 µg/mL) | Toxic | 324 (≈ 62.6 µg/mL) | – | 1300 (≈ 250 µg/mL) |
| O=[N+]([O-])c1cccc(/C=N/c2ccc(-c3nnc(S)o3)cc2)c1 | 613 (≈ 200 µg/mL) | 65.7 | 307 (≈ 100 µg/mL) | 46.3 | 78.3 | 806 | 1530 µM (≈ 501 µg/mL) | 56.7 | – | 74.3 | 613 (≈ 200 µg/mL) | Toxic | 383 (≈ 125 µg/mL) | – | 1530 (≈ 501 µg/mL) |
| O=C(N[C@H](CO)[C@H](O)c1ccc([N+](=O)[O-])cc1)C(Cl)Cl [CHLORAMPHENICOL] | 155 (≈ 50.1 µg/mL) | – | 155 (≈ 50.1 µg/mL) | – | – | – | – | – | – | – | 155 (≈ 50.1 µg/mL) | – | 155 (≈ 50.1 µg/mL) | – | – |
| Oc1ccc(/C=N/c2ccc(-c3nnc(S)n3/N=C/c3ccc(O)cc3)cc2)cc1 | 241 (≈ 100 µg/mL) | 78.7 | 482 (≈ 200 µg/mL) | 72.3 | 84.7 | 282 | inactive | 77 | inactive | 79.7 | 602 (≈ 250 µg/mL) | Toxic | 602 (≈ 250 µg/mL) | 49.5 | – |
| Sc1nnc(-c2ccc(/N=C/c3cccs3)cc2)o1 | 436 (≈ 125 µg/mL) | 66.3 | 348 (≈ 100 µg/mL) | 52.7 | 74.3 | 802 | inactive | 61 | inactive | 70.7 | 871 (≈ 250 µg/mL) | Toxic | 697 (≈ 200 µg/mL) | – | – |
| O=C(O)c1cn(C2CC2)c2cc(N3CCNCC3)c(F)cc2c1=O [CIPROFLOXACIN] | 75 (≈ 24.9 µg/mL) | – | 151 (≈ 50 µg/mL) | – | – | – | – | – | – | – | 75 (≈ 24.9 µg/mL) | – | 151 (≈ 50 µg/mL) | – | – |
| COc1ccc(/C=N/c2ccc(-c3nnc(S)n3/N=C/c3ccc(OC)cc3)cc2)cc1 | 282 (≈ 125 µg/mL) | 59 | 226 (≈ 100 µg/mL) | 38.7 | 79 | 835 | 1130 µM (≈ 500 µg/mL) | 52.7 | – | 64.3 | 564 (≈ 250 µg/mL) | Toxic | 564 (≈ 250 µg/mL) | – | 1130 (≈ 500 µg/mL) |
| CCc1nc(N)nc(N)c1-c1ccc(Cl)cc1 [PYRIMETHAMINE] | – | – | – | – | – | 1000 | – | – | – | – | – | – | – | – | – |
| COC1=CC(=O)C[C@@H](C)[C@]12Oc1c(Cl)c(OC)cc(OC)c1C2=O [GRISEOFULVIN] | – | – | – | – | – | – | 1420 µM (≈ 501 µg/mL) | – | – | – | – | – | – | – | 284 (≈ 100 µg/mL) |
| CCn1cc(C(=O)O)c(=O)c2cc(F)c(N3CCNCC3)cc21 [NORFLOXACIN] | 31 (≈ 9.9 µg/mL) | – | 31 (≈ 9.9 µg/mL) | – | – | – | – | – | – | – | 31 (≈ 9.9 µg/mL) | – | 31 (≈ 9.9 µg/mL) | – | – |
| COc1ccc(/C=N/c2ccc(-c3nnc(S)o3)cc2)cc1 | 643 (≈ 200 µg/mL) | 68 | 804 (≈ 250 µg/mL) | 49 | 80.3 | 790 | 3220 µM (≈ 1000 µg/mL) | 63.7 | – | 72.3 | 402 (≈ 125 µg/mL) | Toxic | 804 (≈ 250 µg/mL) | – | 1610 (≈ 500 µg/mL) |
| Nc1ccc(-c2nnc(S)n2N)cc1 | 1210 (≈ 250 µg/mL) | 82 | 1210 (≈ 250 µg/mL) | 67 | 91.3 | 960 | 4830 µM (≈ 1000 µg/mL) | 75.7 | – | 85.7 | 966 (≈ 200 µg/mL) | Toxic | 1210 (≈ 250 µg/mL) | – | 2420 (≈ 501 µg/mL) |
| CCN(CC)CCCC(C)Nc1ccnc2cc(Cl)ccc12 (configuration not stated) [CHLOROQUINE] | – | – | – | – | – | – | – | – | – | – | – | – | – | 30.1 | – |
| O=[N+]([O-])c1cccc(/C=N/c2ccc(-c3nnc(S)n3/N=C/c3cccc([N+](=O)[O-])c3)cc2)c1 | 423 (≈ 200 µg/mL) | 73.7 | 132 (≈ 62.5 µg/mL) | 59.7 | 87 | 245 | 1060 µM (≈ 500 µg/mL) | 65.3 | – | 80 | 528 (≈ 250 µg/mL) | Toxic | 264 (≈ 125 µg/mL) | 25.9 | 2110 (≈ 1000 µg/mL) |
| Oc1ccc(/C=N/c2ccc(-c3nnc(S)o3)cc2)cc1 | 421 (≈ 125 µg/mL) | 72 | 673 (≈ 200 µg/mL) | 45.3 | 82.3 | 822 | inactive | 67 | inactive | 78.3 | 842 (≈ 250 µg/mL) | Toxic | 673 (≈ 200 µg/mL) | – | – |
| CC1(C)S[C@@H]2[C@H](NC(=O)[C@H](N)c3ccccc3)C(=O)N2[C@H]1C(=O)O [AMPICILLIN] | 286 (≈ 99.9 µg/mL) | – | 286 (≈ 99.9 µg/mL) | – | – | – | – | – | – | – | 286 (≈ 99.9 µg/mL) | – | 716 (≈ 250 µg/mL) | – | – |
| Sc1nnc(-c2ccc(/N=C/c3ccc(Cl)cc3)cc2)n1/N=C/c1ccc(Cl)cc1 | 554 (≈ 251 µg/mL) | 62.3 | 222 (≈ 100 µg/mL) | 47 | 83.3 | 230 | inactive | 55.7 | inactive | 72.3 | 222 (≈ 100 µg/mL) | Toxic | 554 (≈ 251 µg/mL) | 34.9 | – |
